# Results published in PubChem BioAssay (NCI).
# Values joined by “and” are separate entries in the source; they are usually repeats but may differ in a detail not shown here. Equal entries are not always repeated.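 96-well plates; 48 h exposure; 5 concentrations. Endpoints by linear interpolation between flanking doses. Not reached: highest tested concentration assigned. Here, GI50 denotes the concentration required for 50% inhibition of growth. TGI marks complete inhibition of growth.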
# Columns and labels:
# Test in all cases: DTP human tumour cell line panel, 48 h
# LOX IMVI melanoma = system: LOX IMVI melanoma
# DLD-1 colon = system: DLD-1 colon
# RXF 393 renal = system: RXF 393 renal
# UO-31 renal = system: UO-31 renal
# HCC-2998 colon = system: HCC-2998 colon
# TK-10 renal = system: TK-10 renal
# KM12 colon = system: KM12 colon
# U251 CNS = system: U251 CNS
# SR leukemia = system: SR leukemia
SMILES,GI50 (LOX IMVI melanoma),TGI (LOX IMVI melanoma),GI50 (DLD-1 colon),TGI (DLD-1 colon),GI50 (RXF 393 renal),TGI (RXF 393 renal),GI50 (UO-31 renal),TGI (UO-31 renal),GI50 (HCC-2998 colon),TGI (HCC-2998 colon),GI50 (TK-10 renal),TGI (TK-10 renal),GI50 (KM12 colon),TGI (KM12 colon),GI50 (U251 CNS),TGI (U251 CNS),GI50 (SR leukemia),TGI (SR leukemia)
CCC[CH2][Ge]([CH2]CCC)([CH2]CCC)[O]C(=O)C(OC(C)=O)c1ccccc1 (centres undefined),0.535 µM,9.14 µM,1.76 µM,19 µM,0.102 µM,1.44 µM,1.5 µM,18.5 µM,0.53 µM,5.63 µM,8.06 µM,54.3 µM,2.98 µM,22.1 µM,1.19 µM,20.2 µM,,
O=C1c2ccccc2CCC1(Br)Br,1.48 µM,2.9 µM,,,1.68 µM,3.32 µM,1.27 µM,2.6 µM,3.88 µM,9.19 µM,1.5 µM,2.88 µM,4.34 µM,15 µM,5.67 µM,15.9 µM,0.67 µM,3.9 µM
CS(=O)(=O)c1ccc(-c2[nH]c3ccc(F)cc3c2/C=N/NC(N)=S)cc1,0.84 µM,> 100 µM,,,1.21 µM,63.1 µM,2.84 µM,> 100 µM,2.95 µM,14.7 µM,5.88 µM,> 100 µM,0.73 µM,28.8 µM,0.777 µM,> 100 µM,0.329 µM,32.8 µM
Cc1cccc2c1NC(=O)C2(c1ccc(O)cc1)c1ccc(O)cc1,6.76 µM,25.6 µM,,,< 0.0181 µM,0.709 µM,13.1 µM,78.8 µM,0.0706 µM,24.6 µM,0.0206 µM,39.1 µM,3.68 µM,23.6 µM,18.9 µM,48.9 µM,14 µM,45.4 µM
O=C(Nc1ccc(O)c(NS(=O)(=O)c2ccc(F)cc2)c1)c1ccc(-c2ccccc2)cc1,6.18 µM,21.1 µM,,,2.53 µM,10.7 µM,3.35 µM,> 100 µM,17.5 µM,45.3 µM,11.9 µM,30.3 µM,10 µM,23.3 µM,9.07 µM,26.1 µM,2.47 µM,9.3 µM
COc1cc(C(=O)Nc2cc(O)c(C/C=C(\C)CCC=C(C)C)c(O)c2)cc2c1O[C@]1(C)CC[C@@H](O)C(C)(C)[C@H]1C2,0.0626 µM and 0.0809 µM,2.7 µM and 1.92 µM,,,0.00419 µM,0.0809 µM and 0.17 µM,0.0786 µM and 0.237 µM,0.6 µM and 1.29 µM,1.49 µM and 2.13 µM,16.4 µM,2.54 µM,28.9 µM,2.39 µM and 1.52 µM,12.8 µM,0.00961 µM and < 0.0175 µM,6.15 µM,0.0382 µM and 0.0219 µM,7.2 µM and 5.93 µM
O=C(c1ccncc1)N1CCN(C2=NS(=O)(=O)c3ccccc3N2c2ccccc2)CC1,11.5 µM,> 100 µM,,,18.5 µM,40.5 µM,36.4 µM,> 100 µM,16.3 µM,37.6 µM,31.5 µM,77.1 µM,29.2 µM,> 100 µM,8.32 µM,> 100 µM,0.177 µM,2.42 µM
CC#CC(=O)N[C@H]1CCCN(c2c(F)cc(C(N)=O)c3[nH]c(C)c(C)c23)C1,14.9 µM,28.1 µM,,,12.6 µM,26.6 µM,15.9 µM,> 100 µM,16.6 µM,30.7 µM,24.5 µM,95.7 µM,14.3 µM,46.4 µM,17.3 µM,36.3 µM,17.6 µM,> 100 µM
CCCCC/C=C\C/C=C/CCCCCCCCNC(=O)Nc1ccc([N+](=O)[O-])cc1,5.75 µM,> 100 µM,,,24.1 µM,73.8 µM,24.3 µM,> 100 µM,15.7 µM,> 100 µM,> 100 µM,> 100 µM,6.96 µM,> 100 µM,6.05 µM,> 100 µM,10.8 µM,37.6 µM
Cc1ccc2nc(CC(=O)c3ccc4ccccc4c3)c(=O)[nH]c2c1,,> 100 µM,,,,> 100 µM,,> 100 µM,,> 100 µM,,> 100 µM,,> 100 µM,,> 100 µM,,> 100 µM
C/C=C(\C)C(=O)OC1C2C(C)C(=O)OC2C(O)C(C)C2C=CC(=O)C21C (centres undefined),,28.5 µM,,,,24.5 µM,,32.8 µM,,29.8 µM,,26.9 µM,,30.3 µM,,24.6 µM,,18.3 µM
COC(=O)c1cc(NC(=O)CN(CCN(CC(=O)O)CC(=O)Nc2ccc(O)c(C(=O)OC)c2)CC(=O)O)ccc1O,38.5 µM,> 100 µM,,,> 100 µM,> 100 µM,42.7 µM,> 100 µM,97.4 µM,> 100 µM,> 100 µM,> 100 µM,> 100 µM,> 100 µM,43.8 µM,> 100 µM,6.06 µM,48.7 µM
Nc1nc(Cl)nc2c1ncn2C1CCC(COP(=O)(O)OP(=O)(O)OP(=O)(O)O)O1 (centres undefined),,78.5 µM,,,,75 µM,,48.2 µM,,86.1 µM,,> 100 µM,,> 100 µM,,> 100 µM,,> 100 µM
